Measured values taken from patent US11304944B2, “MetAP2 inhibitors and methods of treating obesity” (SynDevRx, Inc., priority 2013, dated 2022).

Legend:
[1] = test system: DIO Levin rats; test: In vivo testing DIO Levin rats: weight changes, food consumption, insulin, leptin levels; conditions: for Final BW: after 68 days, 60% fat diet
Description: CKD-732 as referred to herein is the hemitartrate salt of the following structure:
Test articles were administered subcutaneously on an every 4 day (q4d) schedule in a diet-induced obesity (DIO) Levin-DS rat model. […] A dietary intervention (Standard Chow, Labdiet 5001; 3.4 kcal/g) was included to compare to the drug interventions. Upon arrival at three weeks of age, the male rats received ad libitum pellets of Harlan Diet TD.06414, 60% of calories from fat, 21% of calories from carbohydrate; 5.1 kcal/g. Prior to dosing the rats were randomized into groups of three animals with an average body weight of 595 gm. […] Compound 1 in the form of the hemitartrate and CKD-732 in the form of the hemitartrate were dissolved in ethanol prior to dilution with vehicle. All doses were administered at a volume of 5.0 ml/kg. […] On day 1, first dose, the rats were 14 weeks of age. Also on day 1, Group 2 was switched from the high fat diet to a standard chow diet; the remaining groups were maintained on a high fat diet for the duration of the study.
Animals were weighed every other day. Food consumption was measured weekly. On an approximately weekly basis throughout the study, blood samples were taken for assessment of serum chemistries including glucose and insulin. On Day 48 all rats underwent a 4 hour fasted Oral Glucose Tolerance Test (OGTT). Animals were dosed orally (per os, PO) at 8 mL/kg 25% glucose (2 g/kg). On day 68, gross pathology was performed to determine body composition.

[2] = test system: DIO C57Bl/6 mice; test: In vivo testing DIO mice schedule-dose response: weight, food intake, ipGTT, HOMA-ir data
Description: Animals were dosed according to the schedule in Table 17 below.
Compound dosing occurred between 9 and 10 am on the day of dosing. Groups 6 and 7 received a total of 17 doses. The q4d groups (1, 2, 3, 4, 8, 9) received a total of 9 doses. The q8d group (5) received a total of 5 drug doses. Body weight and food intake were measured every other day. Blood glucose was measured on Day −7, Day 0, Day 7, Day 14, Day 21 and Day 28 at 9:00 am in fed state (BG measured before dose on dosing days). BG was measured by glucometer. An intraperitoneal glucose tolerance test (ipGTT, 6 h fasting) was performed.
The study was terminated on day 34. Liver and epididymal white adipose tissues (eWAT) were harvested, weighed and stored at −80° C. Sera was collected to determine: AST, ALT, ALP, CK, BUN, creatinine, calcium, potassium, sodium, chloride, total protein, albumin, total bilirubin, glucose, triglyceride and cholesterol. Insulin samples were measured using a commercial kit.

[3] = test system: DIO C57Bl6 mice; test: Efficacy of various compounds in DIO mouse model (body weight versus time); format: in vivo; conditions: for BW change vs. vehicle: day 26
Description: On study day 1 animals were randomized into groups so that the average weight of the mice in each group was 47 g. The mice were treated with either phosphate buffered saline (vehicle), or compounds as listed in Table 19 dissolved in vehicle (dorsal, subcutaneous administration).

[4] = 0.6 mg/kd (so in the source) q4d sc

For “poly[HPMA-co-MA-GFLG-N-(trans-4-aminocyclohexyl)carbamoylfumagillol] [Compound 16]”, the “Avg. Insulin Day 7” value ([1]; 0.3 mg/kg q4d sc) was 2.27 ng/mL, the “Avg. Insulin Day 15” value ([1]; 0.3 mg/kg q4d sc) was 1.65 ng/mL and the “Avg. Insulin Day 23” value ([1]; 0.3 mg/kg q4d sc) was 1.66 ng/mL. The “Avg. Insulin Day 48” value ([1]; 0.3 mg/kg q4d sc) was 1.70 ng/mL, the “Avg. Insulin Pre-dosing” value ([1]; 0.3 mg/kg q4d sc) was 1.76 ng/mL and the “Group Average Food Consumption Day 1-8” value ([1]; 0.3 mg/kg q4d sc) was 125.2 g. The “Group Average Food Consumption Day 9-15” value ([1]; 0.3 mg/kg q4d sc) was 125.9 g, the “Group Average Food Consumption Day 16-23” value ([1]; 0.3 mg/kg q4d sc) was 128.2 g and the “Group Average Food Consumption Day 24-30” value ([1]; 0.3 mg/kg q4d sc) was 129.3 g. The “Group Average Food Consumption Day 31-36” value ([1]; 0.3 mg/kg q4d sc) was 122.4 g, the “Group Average Food Consumption Day 37-43” value ([1]; 0.3 mg/kg q4d sc) was 131.9 g and the “Group Average Food Consumption Day 44-50” value ([1]; 0.3 mg/kg q4d sc) was 135.6 g. For the same substance, the “Group Average Food Consumption Day 51-57” value ([1]; 0.3 mg/kg q4d sc) was 134.5 g, the “Group Average Food Consumption Day 58-63” value ([1]; 0.3 mg/kg q4d sc) was 134.2 g and the “Group Average Food Consumption Day 63-68” value ([1]; 0.3 mg/kg q4d sc) was 57.6 g. The “Leptin Levels Day 29” value ([1]; 0.3 mg/kg q4d sc) was 3.30, the “Leptin Levels Pre-dose” value ([1]; 0.3 mg/kg q4d sc) was 2.53 and the “Leptin Levels, Day 29, % Change from Baseline” value (“Leptin Levels, Day 29, % Change” below) ([1]; 0.3 mg/kg q4d sc) was 30.3%. The “Final BW” value ([1]; 0.3 mg/kg q4d sc) was 727.3 g, the “Avg. Insulin Day 7” value [1, 4] was 2.09 ng/mL and the “Avg. Insulin Day 15” value [1, 4] was 1.38 ng/mL. The “Avg. Insulin Day 23” value [1, 4] was 1.72 ng/mL, the “Avg. Insulin Day 48” value [1, 4] was 1.91 ng/mL and the “Avg. Insulin Pre-dosing” value [1, 4] was 2.95 ng/mL. The “Group Average Food Consumption Day 1-8” value [1, 4] was 121.2 g, the “Group Average Food Consumption Day 9-15” value [1, 4] was 101.0 g and the “Group Average Food Consumption Day 16-23” value [1, 4] was 109.7 g. For the same substance, the “Group Average Food Consumption Day 24-30” value [1, 4] was 122.1 g, the “Group Average Food Consumption Day 31-36” value [1, 4] was 125.8 g and the “Group Average Food Consumption Day 37-43” value [1, 4] was 116.6 g. The “Group Average Food Consumption Day 44-50” value [1, 4] was 118.2 g, the “Group Average Food Consumption Day 51-57” value [1, 4] was 123.1 g and the “Group Average Food Consumption Day 58-63” value [1, 4] was 130.7 g. The “Group Average Food Consumption Day 63-68” value [1, 4] was 45.9 g, the “Leptin Levels Day 29” value ([1]; 1 mg/kg q4d sc) was 4.53 and the “Leptin Levels Pre-dose” value ([1]; 1 mg/kg q4d sc) was 4.67. The “Leptin Levels, Day 29, % Change” value ([1]; 1 mg/kg q4d sc) was −2.9%, the “Final BW” value ([1]; 1.0 mg/kg q4d sc) was 668.6 g and the “lower body weight than rats on the standard chow diet” value ([1]; 3 mg/kg Q4D, end of the study) was 6.2%. The “lower body weight than the vehicle control” value ([1]; 3 mg/kg Q4D, end of the study) was 22.1%, the “Avg. Insulin Day 7” value ([1]; 3 mg/kg q4d sc) was 0.66 ng/mL and the “Avg. Insulin Day 15” value ([1]; 3 mg/kg q4d sc) was 0.54 ng/mL. For the same substance, the “Avg. Insulin Day 23” value ([1]; 3 mg/kg q4d sc) was 1.26 ng/mL, the “Avg. Insulin Day 48” value ([1]; 3 mg/kg q4d sc) was 1.08 ng/mL and the “Avg. Insulin Pre-dosing” value ([1]; 3 mg/kg q4d sc) was 1.49 ng/mL. For the same substance, the “Group Average Food Consumption Day 1-8” value ([1]; 3 mg/kg q4d sc) was 97.3 g, the “Group Average Food Consumption Day 9-15” value ([1]; 3 mg/kg q4d sc) was 63.2 g and the “Group Average Food Consumption Day 16-23” value ([1]; 3 mg/kg q4d sc) was 123.4 g. The “Group Average Food Consumption Day 24-30” value ([1]; 3 mg/kg q4d sc) was 108.7 g, the “Group Average Food Consumption Day 31-36” value ([1]; 3 mg/kg q4d sc) was 102.6 g and the “Group Average Food Consumption Day 37-43” value ([1]; 3 mg/kg q4d sc) was 105.5 g. For the same substance, the “Group Average Food Consumption Day 44-50” value ([1]; 3 mg/kg q4d sc) was 129.9 g, the “Group Average Food Consumption Day 51-57” value ([1]; 3 mg/kg q4d sc) was 115.2 g and the “Group Average Food Consumption Day 58-63” value ([1]; 3 mg/kg q4d sc) was 128.0 g. For the same substance, the “Group Average Food Consumption Day 63-68” value ([1]; 3 mg/kg q4d sc) was 43.3 g, the “Leptin Levels Day 29” value ([1]; 3 mg/kg q4d sc) was 1.36 and the “Leptin Levels Pre-dose” value ([1]; 3 mg/kg q4d sc) was 2.47. For the same substance, the “Leptin Levels, Day 29, % Change” value ([1]; 3 mg/kg q4d sc) was −45.0%, the “Final BW” value ([1]; 3.0 mg/kg q4d sc) was 604.7 g and the “Avg. Insulin Day 7” value ([1]; 6 mg, q7d sc) was 1.96 ng/mL. For the same substance, the “Avg. Insulin Day 15” value ([1]; 6 mg, q7d sc) was 1.00 ng/mL, the “Avg. Insulin Day 23” value ([1]; 6 mg, q7d sc) was 1.11 ng/mL and the “Avg. Insulin Day 48” value ([1]; 6 mg, q7d sc) was 1.32 ng/mL. For the same substance, the “Avg. Insulin Pre-dosing” value ([1]; 6 mg, q7d sc) was 3.06 ng/mL, the “Group Average Food Consumption Day 1-8” value ([1]; 6 mg, q7d sc) was 105.2 g and the “Group Average Food Consumption Day 9-15” value ([1]; 6 mg, q7d sc) was 48.3 g. The “Group Average Food Consumption Day 16-23” value ([1]; 6 mg, q7d sc) was 43.9 g, the “Group Average Food Consumption Day 24-30” value ([1]; 6 mg, q7d sc) was 139.8 g and the “Group Average Food Consumption Day 31-36” value ([1]; 6 mg, q7d sc) was 117.4 g. The “Group Average Food Consumption Day 37-43” value ([1]; 6 mg, q7d sc) was 126.3 g, the “Group Average Food Consumption Day 44-50” value ([1]; 6 mg, q7d sc) was 81.2 g and the “Group Average Food Consumption Day 51-57” value ([1]; 6 mg, q7d sc) was 107.5 g. For the same substance, the “Group Average Food Consumption Day 58-63” value ([1]; 6 mg, q7d sc) was 107.7 g, the “Group Average Food Consumption Day 63-68” value ([1]; 6 mg, q7d sc) was 19.8 g and the “Leptin Levels Day 29” value ([1]; 6 mg, q7d sc) was 2.00. The “Leptin Levels Pre-dose” value ([1]; 6 mg, q7d sc) was 3.93, the “Leptin Levels, Day 29, % Change” value ([1]; 6 mg, q7d sc) was −49.2% and the “Final BW” value ([1]; 6.0 mg/kg q7d sc) was 596.7 g. The “change in leptin levels from baseline versus dose” value ([1]; FIG. 18) was “dose-dependent response”, the “weight loss versus fumagillol exposure, compared to Compound 1 or CKD-732” value ([1]; day 68, FIG. 12) was “greater weight loss with significantly lower fumagillol exposure” and the “Glucose, ipGTT 0 min” value ([2]; 2 mg/kg q4d) was 182.8 mg/dL. The “Glucose, ipGTT 15 min” value ([2]; 2 mg/kg q4d) was 488.6 mg/dL, the “Insulin, ipGTT 0 min” value ([2]; 2 mg/kg q4d) was 104.6 uU/ml and the “Insulin, ipGTT 15 min” value ([2]; 2 mg/kg q4d) was 133.4 uU/ml. For the same substance, the “Glucose, ipGTT 0 min” value ([2]; 6 mg/kg q4d) was 179.8 mg/dL, the “Glucose, ipGTT 15 min” value ([2]; 6 mg/kg q4d) was 557.3 mg/dL and the “Insulin, ipGTT 0 min” value ([2]; 6 mg/kg q4d) was 53.2 uU/ml. The “Insulin, ipGTT 15 min” value ([2]; 6 mg/kg q4d) was 64.3 uU/ml, the “Glucose, ipGTT 0 min” value ([2]; 12 mg/kg Q8D) was 204.0 mg/dL and the “Glucose, ipGTT 15 min” value ([2]; 12 mg/kg Q8D) was 553.1 mg/dL. For the same substance, the “Insulin, ipGTT 0 min” value ([2]; 12 mg/kg Q8D) was 75.9 uU/ml, the “Insulin, ipGTT 15 min” value ([2]; 12 mg/kg Q8D) was 96.0 uU/ml and the fasting insulin ([2]; all Compound 16 groups, FIG. 22) was “fasting insulin was also reduced”. For the same substance, the “Group Avg. BW, Study Day 1” value ([3]; 2 mg/kg q4d sc) was 47.0 g, the “Group Avg. BW, Study Day 7” value ([3]; 2 mg/kg q4d sc) was 43.4 g and the “Group Avg. BW, Study Day 15” value ([3]; 2 mg/kg q4d sc) was 43.2 g. The “Group Avg. BW, Study Day 21” value ([3]; 2 mg/kg q4d sc) was 42.0 g, the “Group Avg. BW, Study Day 26” value ([3]; 2 mg/kg q4d sc) was 41.7 g and the “BW change vs. vehicle” value ([3]; 2 mg/kg q4d sc) was −9.6%. The “Group Avg. BW, Study Day 1” value ([3]; 12 mg/kg q8d sc) was 47.0 g, the “Group Avg. BW, Study Day 7” value ([3]; 12 mg/kg q8d sc) was 41.3 g and the “Group Avg. BW, Study Day 15” value ([3]; 12 mg/kg q8d sc) was 38.3 g. The “Group Avg. BW, Study Day 21” value ([3]; 12 mg/kg q8d sc) was 36.2 g, the “Group Avg. BW, Study Day 26” value ([3]; 12 mg/kg q8d sc) was 38.0 g and the “BW change vs. vehicle” value ([3]; 12 mg/kg q8d sc) was −17.5%.
